Laboratory results published in the NIST ThermoML archive (doi:10.1016/j.fluid.2016.08.002).

Experiment: xn = mol fraction of the nth substance listed
Settings: Gas, Vibrating tube method

S [hydrogen sulfide] + C
Settings	mass density [kg/m3]
253.4 K, 9215 kPa, x2 = 0.8685	128.92
253.4 K, 9484 kPa, x2 = 0.8685	135.48
253.41 K, 10167 kPa, x2 = 0.8685	150.17
253.42 K, 10405 kPa, x2 = 0.8685	155.11
253.42 K, 10879 kPa, x2 = 0.8685	164.94
253.42 K, 11161 kPa, x2 = 0.8685	170.62
253.43 K, 9711 kPa, x2 = 0.8685	140.67
253.43 K, 9944 kPa, x2 = 0.8685	145.46
253.44 K, 10674 kPa, x2 = 0.8685	160.71
253.45 K, 11408 kPa, x2 = 0.8685	175.6
253.45 K, 12503 kPa, x2 = 0.8685	195.9
253.46 K, 11691 kPa, x2 = 0.8685	181.06
253.46 K, 11951 kPa, x2 = 0.8685	186.09
253.46 K, 12221 kPa, x2 = 0.8685	190.99
253.46 K, 12710 kPa, x2 = 0.8685	199.55
253.47 K, 13026 kPa, x2 = 0.8685	204.72
253.48 K, 13361 kPa, x2 = 0.8685	209.99
253.49 K, 13557 kPa, x2 = 0.8685	213.18
253.5 K, 13904 kPa, x2 = 0.8685	217.77
253.53 K, 14217 kPa, x2 = 0.8685	222.31
253.53 K, 14605 kPa, x2 = 0.8685	227.86
253.53 K, 27036 kPa, x2 = 0.8685	316.4
253.54 K, 15328 kPa, x2 = 0.8685	236.23
253.56 K, 16209 kPa, x2 = 0.8685	246.09
253.56 K, 23487 kPa, x2 = 0.8685	300.68
253.57 K, 26154 kPa, x2 = 0.8685	313.25
253.58 K, 16612 kPa, x2 = 0.8685	250.04
253.59 K, 17129 kPa, x2 = 0.8685	255.23
253.6 K, 17589 kPa, x2 = 0.8685	259.35
253.61 K, 18036 kPa, x2 = 0.8685	263.28
253.61 K, 18480 kPa, x2 = 0.8685	267.15
253.62 K, 18822 kPa, x2 = 0.8685	269.8
253.63 K, 19390 kPa, x2 = 0.8685	274.47
253.64 K, 19853 kPa, x2 = 0.8685	277.53
253.66 K, 21081 kPa, x2 = 0.8685	286.3
253.66 K, 21605 kPa, x2 = 0.8685	289.87
253.67 K, 22087 kPa, x2 = 0.8685	292.82
253.68 K, 22512 kPa, x2 = 0.8685	295.31
253.68 K, 22918 kPa, x2 = 0.8685	297.52
253.72 K, 26573 kPa, x2 = 0.8685	314.9
272.97 K, 448 kPa, x2 = 0.714	4.32
272.98 K, 925 kPa, x2 = 0.714	9.1
272.98 K, 1959 kPa, x2 = 0.714	21.08
272.99 K, 1499 kPa, x2 = 0.714	15.62
272.99 K, 2470 kPa, x2 = 0.714	27.39
272.99 K, 15974 kPa, x2 = 0.714	304.94
272.99 K, 16531 kPa, x2 = 0.714	310.78
273 K, 5009 kPa, x2 = 0.714	66.37
273 K, 13055 kPa, x2 = 0.714	265.48
273 K, 13551 kPa, x2 = 0.714	273.7
273 K, 14019 kPa, x2 = 0.714	280.64
273 K, 14532 kPa, x2 = 0.714	287.5
273 K, 15457 kPa, x2 = 0.714	298.99
273.01 K, 12511 kPa, x2 = 0.714	252.68
273.01 K, 14977 kPa, x2 = 0.714	293.17
273.02 K, 4006 kPa, x2 = 0.714	49.21
273.02 K, 4495 kPa, x2 = 0.714	57.7
273.02 K, 5020 kPa, x2 = 0.8197	51.69
273.03 K, 5418 kPa, x2 = 0.714	73.5
273.03 K, 16977 kPa, x2 = 0.714	315.19
273.03 K, 29571 kPa, x2 = 0.714	387.72
273.03 K, 30070 kPa, x2 = 0.714	389.49
273.04 K, 220 kPa, x2 = 0.8197	1.87
273.04 K, 5526 kPa, x2 = 0.8197	58.55
273.05 K, 512 kPa, x2 = 0.8197	4.39
273.05 K, 6060 kPa, x2 = 0.8197	66.2
